{
  "source": "patent US12365946B2",
  "about": "“Compositions and methods for the diagnosis and treatment of lymphatic system disorders” (THE CHILDREN'S HOSPITAL OF PHILADELPHIA, priority 2018, dated 2025)",
  "key": {"mTOR [1]": {"molecular_target": "T1, mTOR (Homo sapiens, UniProt P42345)", "settings": "cell-free assays; cited from earlier work"}, "autophagy": {"system": "autophagy", "settings": "cited from earlier work"}, "[2]": {"system": "ERK activation/phosphorylation in cells expressing WT and mutant BRAF or PTPN11", "experiment": "pERK levels in Ea.hy926 cells expressing WT and mutant BRAF or PTPN11, MEK inhibitor titration", "assay_type": "cell-based, human", "settings": "cells expressing WT and mutant BRAF or PTPN11, FIGS. 4 and 5", "description": "A cellular model for studying the effects of potential ERK-activating mutations was developed. We have retrovirally expressed wild-type and mutant versions of proteins in the cell line Ea.hy926. The Ea.hy926 cell line is a fusion of human umbilical vein endothelial cells with a […] cell line. It is immortalized and retains some characteristics of endothelial cells.\nIn an effort to identify inhibitors with greater therapeutic efficacy, we have treated cells expressing WT and mutant BRAF or PTPN11 with various MEK inhibitors. […] BRAF F486S consistently induces ERK activation over WT levels, although the specific fold increase varies from gel to gel."}, "ERK1/2 phosphorylation": {"system": "ERK1/2 phosphorylation", "settings": "more potent than CI-1040; cited from earlier work"}, "[3]": {"system": "zebrafish larvae overexpressing KRAS-G12D mutant in lymphatics", "experiment": "Zebrafish model overexpressing KRAS-G12D in lymphatics", "assay_type": "in vivo", "settings": "FIG. 19"}, "[4]": {"system": "HDLECs expressing ARAF mutation S214P", "experiment": "Immunofluorescence staining and western blotting of HDLECs expressing ARAF-S214P", "assay_type": "cell-based, human", "settings": "for biochemical and morphological reversal of the effects induced by the ARAF mutation / cell morphological differences induced by ARAF-S214P: HDLECs; for VE-cadherin accumulation at the cell membrane / levels of pERK: HDLECs expressing ARAF-S214P", "description": "We developed a cellular model to better understand and study the effects of potential ERK-activating mutations was developed by using primary lymphatic endothelial cells instead of established cell lines to capture the characteristics of mutations in the disease relevant cell type. We have retrovirally expressed wild-type and mutant versions of proteins in the human dermal lymphatic endothelial cells (HDLECs).\nThe ARAF sequence, from pCDNA3.1-F2S2-ARAF-WT or -S214P constructs as previously indicated, was cut with BamHI/XhoI and introduced into the BglII/XhoI sites of a modified version of the pMSCV plasmid that contains aminoterminal FLAG and HA tags. Viral production was performed using Fugene, with 8 μg of total DNA (pMSCV-ARAF-WT or -S214P together with envelope and packaging plasmids) and 18 μl of the transfection reagent in HEK293T. After 72 h, viral supernatant was collected and filtered. HDLECs were infected by replacing the cell culture medium with the viral supernatant, supplemented with 8 μg ml^−1 Polybrene and filtered through a 0.45 μm filter. Cells were spinfected at 650 g for 90 min, and subsequently cultured for 6 h at which point the viral supernatant was replaced by standard culture medium. Transduced HDLECs were cultured for 48 h before use in experiments. Transduction efficiencies observed by HA staining were between 40% and 60%.\nRound (12 mm) coverslips (VWR) were coated with 0.1% gelatin in water for 10 min in 24-well plates (Corning), and then air-dried for 15 min. […] Cells were washed in warm serum-free Dulbecco's modified Eagle's medium and fixed in 4% paraformaldehyde. Fixed cells were washed twice with PBS and twice with 0.1% BSA in PBS. Cells were permeablized and blocked by incubation with 10% normal donkey serum (Jackson Immunoresearch) and 0.3% Triton X-100 (Sigma Aldrich) in PBS. VE-cadherin antibody (Thermo Fisher Scientific) was diluted (final concentration: 2 μg ml^−1) in 0.01% normal donkey serum, 0.1% BSA and 0.3% Triton X-100 in PBS, and staining was performed for 1 h. Coverslips were washed twice with 0.1% BSA in PBS. Goat-anti-rabbit Alexa546 (Thermo Fisher Scientific; final concentration: 8 μg ml-1) and phalloidin Alexa350 (Thermo Fisher Scientific; final concentration: 5 units ml-1) were diluted in 0.01% normal donkey serum, 0.1% BSA and 0.3% Triton X-100 in PBS, and staining was performed for 1 h. When used, HA-Tag (6E2) mouse antibody (cat. no. 2367, Cell Signaling Technology) was diluted 1:100 in 0.1% BSA and 0.3% Triton X-100 in PBS, and staining was performed for 1 h. Coverslips were washed twice with 0.1% BSA in PBS and twice with PBS. Coverslips were dipped in water to remove residual salts, and mounted to slides using Prolong Gold antifade reagent (Thermo Fisher Scientific). Image acquisition was performed on a Leica DM6000 motorized upright microscope with a Photometrics HQ2 high-resolution monochrome CCD (charge-coupled device) camera using LAS AF software (Leica Microsystems). Z-stacks were acquired at ×10 magnification. Images were further processed in the Fiji software package42. Brightness and contrast adjustments were made. Identical brightness and contrast settings were applied to all images. Fluorescence values were measured in regions of interest (ROIs) drawn to contain entire individual cells, or in ROIs drawn to contain the entire cell body but exclude the cell-cell junction. From those measured values, a value for the plasma membrane was derived (total cell-intracellular), and the ratio of plasma membrane to intracellular values was derived and plotted. Additionally, the length and width of cells were measured with the line tool and ROI manager. For both analyses, five clearly ARAF-expressing cells, as determined by HA staining, were analyzed per ×10 field. Five ×10 fields were acquired per condition per experiment. Experiments were conducted with cells from 3 independent thaws and transductions of HDLECs, for a total of 75 cells per condition. […]"}, "MM cell lines": {"system": "MM cell lines", "settings": "units printed inside the range; cited from earlier work"}, "[5]": {"system": "Abl1, AKT3, c-RAF, CamK1, CDK2, c-Met", "settings": "cited from earlier work"}, "[6]": {"molecular_target": "immunophilin FKBP12 (FK506 binding protein) (Homo sapiens, UniProt P62942)", "sequence (P62942 whole entry)": "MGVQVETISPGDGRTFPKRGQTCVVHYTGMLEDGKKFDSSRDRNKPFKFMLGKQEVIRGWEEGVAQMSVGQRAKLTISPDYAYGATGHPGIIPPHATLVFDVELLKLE", "settings": "by binding to FKBP12; cited from earlier work"}, "mTOR [7]": {"molecular_target": "T1, mTOR", "settings": "Table 2 grade symbols (+ to ++++, √); key not given; cited from earlier work"}},
  "data": [
    {"molecule": "CO[C@H]1C[C@@H]2CC[C@@H](C)[C@@](O)(O2)C(=O)C(=O)N2CCCC[C@H]2C(=O)O[C@H]([C@H](C)C[C@@H]2CC[C@@H](OCCO)[C@H](OC)C2)CC(=O)[C@H](C)/C=C(\\C)[C@@H](O)[C@@H](OC)C(=O)[C@H](C)C[C@H](C)/C=C/C=C/C=C/1C", "note": "[Everolimus (RAD001), Everolimus]", "values": [
      {"measurement": "IC50", "setting": "mTOR [1]", "value": "1.6 to 2.4", "unit": "nM"}
    ]},
    {"molecule": "O=[N+]([O-])c1ccc(Nc2nc(N3CCOCC3)nc(N3CCOCC3)n2)cc1", "note": "[MHY1485]", "values": [
      {"measurement": "inhibits autophagy", "setting": "autophagy", "value": "also potently inhibits autophagy."}
    ]},
    {"molecule": "O=C(NOC[C@H](O)CO)c1ccc(F)c(F)c1Nc1ccc(I)cc1F", "note": "[PD0325901]", "values": [
      {"measurement": "pERK levels, titration curves", "setting": "[2]", "value": "reducing pERK levels in cells in a dose dependent manner"},
      {"measurement": "potency relative to CI-1040 on phosphorylation of ERK1 and ERK2", "setting": "ERK1/2 phosphorylation", "value": "assays, roughly 500-fold more"},
      {"measurement": "disorganized lymphatic branching", "setting": "[3]", "value": "improvement"},
      {"measurement": "edema", "setting": "[3]", "value": "decrease"},
      {"measurement": "biochemical and morphological reversal of the effects induced by the ARAF mutation", "setting": "[4]", "value": "reversal"},
      {"measurement": "cell morphological differences induced by ARAF-S214P", "setting": "[4]", "value": "rescued"},
      {"measurement": "VE-cadherin accumulation at the cell membrane", "setting": "[4]", "value": "increased"},
      {"measurement": "levels of pERK", "setting": "[4]", "value": "reduced"}
    ]},
    {"molecule": "O=C(NC[C@H](O)CO)c1ccncc1Nc1ccc(I)cc1F", "note": "[Pimasertib (AS-703026), Pimasertib]", "values": [
      {"measurement": "pERK levels, titration curves", "setting": "[2]", "value": "reducing pERK levels in cells in a dose dependent manner"},
      {"measurement": "IC50", "setting": "MM cell lines", "value": "5 to 2000", "unit": "nM"},
      {"measurement": "disorganized lymphatic branching", "setting": "[3]", "value": "improvement"},
      {"measurement": "edema", "setting": "[3]", "value": "decrease"},
      {"measurement": "biochemical and morphological reversal of the effects induced by the ARAF mutation", "setting": "[4]", "value": "reversal"},
      {"measurement": "cell morphological differences induced by ARAF-S214P", "setting": "[4]", "value": "rescued"},
      {"measurement": "VE-cadherin accumulation at the cell membrane", "setting": "[4]", "value": "increased"},
      {"measurement": "levels of pERK", "setting": "[4]", "value": "reduced"}
    ]},
    {"molecule": "Cn1c(=O)c(F)c(Nc2ccc(I)cc2F)c2c(=O)n(C[C@@H](O)CO)cnc21", "note": "[TAK-733]", "values": [
      {"measurement": "disorganized lymphatic branching", "setting": "[3]", "value": "improvement"},
      {"measurement": "edema", "setting": "[3]", "value": "decrease"},
      {"measurement": "biochemical and morphological reversal of the effects induced by the ARAF mutation", "setting": "[4]", "value": "reversal"},
      {"measurement": "cell morphological differences induced by ARAF-S214P", "setting": "[4]", "value": "rescued"},
      {"measurement": "VE-cadherin accumulation at the cell membrane", "setting": "[4]", "value": "increased"},
      {"measurement": "levels of pERK", "setting": "[4]", "value": "reduced"},
      {"measurement": "activity to Abl1, AKT3, c-RAF, CamK1, CDK2, c-Met, etc.", "setting": "[5]", "value": "inactive to Abl1, AKT3, c-RAF,"}
    ]},
    {"molecule": "C=CC[C@@H]1/C=C(\\C)C[C@H](C)C[C@H](OC)[C@H]2O[C@@](O)(C(=O)C(=O)N3CCCC[C@H]3C(=O)O[C@H](/C(C)=C/[C@@H]3CC[C@@H](O)[C@H](OC)C3)[C@H](C)[C@@H](O)CC1=O)[C@H](C)C[C@@H]2OC", "note": "[Tacrolimus (FK506), Tacrolimus]", "values": [
      {"measurement": "peptidyl-prolyl isomerase activity in T cells", "setting": "[6]", "value": "reduces peptidyl-prolyl isomerase"},
      {"measurement": "mTOR", "setting": "mTOR [7]", "value": "√"}
    ]}
  ]
}
